Reference: patent publication US8273775B2, “Non-steroidal brassinosteroid mimetic” (priority 2006, dated 2012)

How the values were obtained:
[1] = test system: Arabidopsis thaliana seedlings; test: Lateral root formation / root elongation of seedlings on agar plates; type: in vivo; settings: Arabidopsis thaliana; read-out: root elongation and lateral root development inhibited, EC50-value
Procedure: FIG. 3: (A) Phenotypic characterization. WT plants were grown under standard conditions on agar plates. […] Left panel: control plant. Middle panel: abrasin treated plant. Right panel: BL treated plant. (B) Dose response measurements of abrasin using lateral root formation as an indicator of brassinosteroid like activity. Error bars represent standard error of the mean. […] Osram) at 22° C. Three days after germination compounds were added to the 96-well plates at a final concentration of 50 μM. Plants were screened six days after germination for brassinosteroid-related phenotypes. For further phenotypical analysis, all plants were grown on vertically oriented square plates (Greiner Labortechnik, Austria) with solid medium derived from standard Murashige and Skoog medium under the same conditions. For the hypocotyl-elongation assay, plants were grown in the dark at 22° C. under the same conditions.

[2] = test system: Arabidopsis thaliana seedlings; test: Chemical genetics screening for brassinosteroid-related phenotypes; type: in vivo; settings: young seedlings
Procedure: A commercial 10.000 compound library (DiverSet, ChemBridge, USA) was screened for brassinosteroid related phenotypes. Three to four Arabidopsis thaliana (L.) Heynh. seeds were sown in 96-well filterplates (Multiscreen HTS MSBVS1210, Millipore, USA) in liquid medium derived from standard Murashige and Skoog (MS) medium in a growth chamber under continuous light (110 μE.m^2. s^1 photosynthetically active radiation, supplied by cool-white fluorescent tungsten tubes; Osram) at 22° C. Three days after germination compounds were added to the 96-well plates at a final concentration of 50 μM. Plants were screened six days after germination for brassinosteroid-related phenotypes.
For further phenotypical analysis, all plants were grown on vertically oriented square plates (Greiner Labortechnik, Austria) with solid medium derived from standard Murashige and Skoog medium under the same conditions. For the hypocotyl-elongation assay, plants were grown in the dark at 22° C. under the same conditions.

BIN2 kinase = target: T1, BIN2 kinase (Arabidopsis thaliana, UniProt Q39011); test: In vitro kinase assay GST-BIN2 with MBP-BES1; type: biochemical
T1 sequence (Q39011 1-380): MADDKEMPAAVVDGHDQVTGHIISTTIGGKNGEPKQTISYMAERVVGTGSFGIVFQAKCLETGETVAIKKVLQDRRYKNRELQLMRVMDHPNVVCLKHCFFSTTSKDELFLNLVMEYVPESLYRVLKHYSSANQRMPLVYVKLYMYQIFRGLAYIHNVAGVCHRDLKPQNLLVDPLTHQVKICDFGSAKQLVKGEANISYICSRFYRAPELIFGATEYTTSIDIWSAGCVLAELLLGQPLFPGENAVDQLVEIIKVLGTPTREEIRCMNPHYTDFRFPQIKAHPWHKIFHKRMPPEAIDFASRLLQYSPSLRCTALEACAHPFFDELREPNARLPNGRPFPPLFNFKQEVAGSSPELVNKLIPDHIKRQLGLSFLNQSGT
Procedure: (§1) Coomassie staining was used as a loading control. b, Autoradiography of kinase assays with nine ASKs with MBP as a substrate in the presence or absence of 10 μM abrasin. The second member of group IV, ASKκ, had no kinase activity and was not included in the analysis. c, Autoradiography of kinase assays with AtMPK4, AtMPK6 and MBP as a substrate (left) and with AtAUR1 kinase and histone H3 as a substrate (right) in the presence or absence of 10 μM abrasin.
(§2) For in vitro kinase assays, MBP, MBP-BES1, and MBP-bes1 (20 ng each) were incubated with GST-BIN2 or GST-BRI1 kinase (200 ng each) in 20 μl of kinase buffer (20 mM Tris [pH 7.5], 100 mM NaCl, and 12 mM MgCl2) and 10 μCi ^32P-γATP. After incubation at 37° C. for 40 min, the reactions were stopped by adding 20 μl of 2×SDS buffer and boiling at 94° C. for 5 min. Proteins were resolved by a PAGE gel and phosphorylation was detected by exposing the dried gel to X-ray film. Proteins from 35S::bes1-GFP transgenic plants were used for phosphatase (CIP) treatments as described (Fankhauser et al., 1999).

GST-BIN2 = target: T2, GST-BIN2 (Arabidopsis thaliana, UniProt Q39011); test: SPR analysis of binding to immobilized GST-BIN2
T2 sequence (Q39011 1-380): T1 sequence (Q39011 1-380)
Procedure: FIG. 13: Abrasin directly interacts with BIN2. SPR sensorgrams for abrasin binding to GST-BIN2 after injection of different abrasin concentrations as indicated. […] Reference and blank data are subtracted. The experiment was performed in triplicate. Biacore T100 was used to analyze interaction of abrasion with BIN2. Using amine coupling, purified GST-BIN2 was immobilized in the flow cell of a Series S CM5 Sensor Chip (Research Grade, Biacore AB). HBS-EP (Biacore AB) was used as running buffer, flow rate was set at 5 μl/min. The surface of the chip was activated by injecting a mixture of EDC (0.2 M) and NHS (0.05 M) for 10 min. Subsequently, 20 μg/ml GST-BIN2 in 10 mM sodium acetate buffer (pH 6.0) was injected for 20 min. The immobilization level of GST-BIN2 was≈20,000 RU. The chip was then flushed with 1 M ethanolamine (pH 8.5) for 10 min to deactivate the surface. A flow cell treated with a cycle of activation and deactivation without immobilized ligand was used as a reference. […] Different concentrations of abrasin were injected at a flow rate of 30 μl/min over the reference and the GST-BIN2 flow cell for 90 s, followed by 180 s of buffer flow (dissociation phase). Zero concentration samples were used as blanks. The flow cell temperature was set to 25° C.

AtAUR1 = target: T3, AtAUR1 (Arabidopsis thaliana, UniProt Q9M077); test: Kinase assay with AtAUR1 and histone H3 as substrate; type: biochemical; settings: 10 μM abrasin
T3 sequence (Q9M077 1-294): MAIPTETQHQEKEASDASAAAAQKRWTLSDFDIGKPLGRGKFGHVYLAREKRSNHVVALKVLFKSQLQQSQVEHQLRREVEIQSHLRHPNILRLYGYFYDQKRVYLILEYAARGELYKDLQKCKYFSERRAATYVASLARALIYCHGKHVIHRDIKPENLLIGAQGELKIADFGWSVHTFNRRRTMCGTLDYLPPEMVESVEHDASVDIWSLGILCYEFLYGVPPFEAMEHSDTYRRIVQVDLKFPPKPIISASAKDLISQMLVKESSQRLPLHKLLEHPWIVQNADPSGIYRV
Procedure: as §1
as §2, with “Proteins from 35S::bes1-GFP transgenic plants were used for phosphatase (CIP) treatments as described (Fankhauser et al., 1999).” left out
Besides BIN2, nine additional GSK-3 kinases (also designated ASKs for Arabidopsis SHAGGY-related kinases) divided into four subgroups (I-IV) have been identified in Arabidopsis (Jonak and Hirt, 2002; Yoo et al. 2006). To determine the specificity of abrasin, its effect on the kinase activity of all ASKs was analyzed with myelin basic protein (MBP) as a general substrate. […]

SMILES: O=C(O)CCC(=O)Nc1ccc(Br)cn1 [abrasin, 4-[(5-bromo-2-pyridinyl)amino]-4-oxobutanoic acid]
- EC50 [1]: 20 µM
- elongation of leaves, petioles and the hypocotyl [2]: strongly induced elongation of leaves, petioles and the hypocotyl in a dosage-dependent manner
- concentration at which inhibitory effect was already apparent (BIN2 kinase): lower than 2.5 μM
- BIN2 kinase activity towards its substrate BES1 (BIN2 kinase; 0 to 10 μM): strongly reduced BIN2 kinase activity towards its substrate BES1 in a dose-dependent manner
- inhibitory effect on BIN2 kinase activity (BIN2 kinase; at 10 μM): dramatic
- concentration from which a clear SPR response starts (GST-BIN2): ≥ 10 µM
- Kd (GST-BIN2; 1:1 interaction model, 25° C.): 199 µM
- kd (GST-BIN2; 1:1 interaction model, 25° C.): 0.081 s⁻¹
- kon (GST-BIN2; 1:1 interaction model, 25° C., read-out: ka): 407 M⁻¹ s⁻¹
- effect on kinase activity (AtAUR1): no effect
